Data reported in the supplement of paper PMC10627819.

Columns and labels:
B. subtilis 168 [1] = experiment: fitness (endpoint OD595 vs no drug) (fraction); higher = more growth
Method in brief: (§1)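 Cultures at OD595 0.01 were dispensed into 384-well plates in TSB, LB Lennox or CY and incubated at 37 °C. Every 30 min for 14 h, OD595 was read and corrected by the first reading. Fitness is the optical density at entry into stationary phase relative to the robust mean of no-drug control wells, capped at 1.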

S. pneumoniae D39V [2] = experiment: as above
Method in brief: as §1

B. subtilis 168 [3] = experiment: Bliss interaction score (quartile over a dose matrix) (fitness difference); higher = more antagonism (negative = synergy)
Method in brief: (§2)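 The Bliss score subtracts expected fitness, the product of the single-drug fitness values, from observed fitness. Fitness is plate-normalised OD595 at entry into stationary phase, relative to the robust no-drug mean and capped at 1, with single-drug fitness inferred from combinations. Summaries are quartiles over technical, biological and donor/recipient replicates.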

S. aureus DSM 20231 = experiment: as above
Method in brief: as §2

S. aureus Newman = experiment: as above
Method in brief: as §2

S. pneumoniae D39V [4] = experiment: as above
Method in brief: as §2
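Wherever Bliss interaction score (quartile over a dose matrix) is given: first quartile when negative (synergy) and third quartile when positive (antagonism).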

C[C@H]1COc2c(N3CCN(C)CC3)c(F)cc3c(=O)c(C(=O)O)cn1c23 [Levofloxacin] + CN(C)C(=O)C(CCN1CCC(O)(c2ccc(Cl)cc2)CC1)(c1ccccc1)c1ccccc1 [Loperamide]
fitness, one replicate
Conditions	first compound 0.001 µg/mL	first compound 0.002 µg/mL	first compound 0.0039 µg/mL	first compound 0.2 µg/mL	first compound 0.4 µg/mL	first compound 0.8 µg/mL
B. subtilis 168 [1], partner 25 µg/mL	0.807	0.714	0.714	–	–	–
B. subtilis 168 [1], partner 50 µg/mL	0.618	0.172	0.206	–	–	–
B. subtilis 168 [1], partner 100 µg/mL	0.613	0.51	0.581	–	–	–
S. pneumoniae D39V [2], partner 68.57 µg/mL	–	–	–	0.913	0.896	0.864

Conditions	fitness
B. subtilis 168 [1], first compound 0.0312 µg/mL, partner 25 µg/mL	0.0337
B. subtilis 168 [1], first compound 0.0312 µg/mL, partner 50 µg/mL	0.0298
B. subtilis 168 [1], first compound 0.0312 µg/mL, partner 100 µg/mL	0.0296
B. subtilis 168 [1], first compound 0.0625 µg/mL, partner 25 µg/mL	0.0122
B. subtilis 168 [1], first compound 0.0625 µg/mL, partner 50 µg/mL	0.0229
B. subtilis 168 [1], first compound 0.0625 µg/mL, partner 100 µg/mL	0.0349
B. subtilis 168 [1], first compound 0.125 µg/mL, partner 25 µg/mL	0.0335
B. subtilis 168 [1], first compound 0.125 µg/mL, partner 50 µg/mL	0.0386
B. subtilis 168 [1], first compound 0.125 µg/mL, partner 100 µg/mL	0.0401
S. pneumoniae D39V [2], first compound 0.1725 µg/mL, partner 20 µg/mL	≥ 1
S. pneumoniae D39V [2], first compound 0.1725 µg/mL, partner 40 µg/mL	≥ 1
S. pneumoniae D39V [2], first compound 0.2 µg/mL, partner 17.14 µg/mL	0.877
S. pneumoniae D39V [2], first compound 0.2 µg/mL, partner 34.28 µg/mL	0.9
S. pneumoniae D39V [2], first compound 0.345 µg/mL, partner 20 µg/mL	0.998
S. pneumoniae D39V [2], first compound 0.345 µg/mL, partner 40 µg/mL	≥ 1
S. pneumoniae D39V [2], first compound 0.4 µg/mL, partner 17.14 µg/mL	0.901
S. pneumoniae D39V [2], first compound 0.4 µg/mL, partner 34.28 µg/mL	0.883
S. pneumoniae D39V [2], first compound 0.69 µg/mL, partner 20 µg/mL	0.787
S. pneumoniae D39V [2], first compound 0.69 µg/mL, partner 40 µg/mL	0.837
S. pneumoniae D39V [2], first compound 0.8 µg/mL, partner 34.28 µg/mL	0.642

Conditions	Bliss interaction score
B. subtilis 168 [3]	0.155
S. aureus DSM 20231	0.0444
S. aureus Newman	0.0501
S. pneumoniae D39V [4]	0.189

C[C@H]1COc2c(N3CCN(C)CC3)c(F)cc3c(=O)c(C(=O)O)cn1c23 [Levofloxacin] + CN(C)c1cc(NC(=O)CNC(C)(C)C)c(O)c2c1C[C@H]1C[C@H]3[C@H](N(C)C)C(O)=C(C(N)=O)C(=O)[C@@]3(O)C(O)=C1C2=O [Tigecycline]
fitness, B. subtilis 168 [1], one replicate
Conditions	partner 0.039 µg/mL	partner 0.078 µg/mL	partner 0.125 µg/mL	partner 0.156 µg/mL	partner 0.25 µg/mL	partner 0.5 µg/mL
first compound 0.001 µg/mL	0.897	0.893	–	0.926	–	–
first compound 0.002 µg/mL	0.932	0.911	≥ 1	0.878	0.862	0.993
first compound 0.0039 µg/mL	0.847	0.855	0.985	0.971	0.955	0.887
first compound 0.0078 µg/mL	–	–	0.94	–	0.94	0.885

fitness
Conditions	first compound 0.0312 µg/mL	first compound 0.0625 µg/mL	first compound 0.125 µg/mL	first compound 0.1725 µg/mL	first compound 0.2 µg/mL	first compound 0.345 µg/mL	first compound 0.4 µg/mL	first compound 0.69 µg/mL	first compound 0.8 µg/mL
B. subtilis 168 [1], partner 0.039 µg/mL	0.0258	0.0305	0.0314	–	–	–	–	–	–
B. subtilis 168 [1], partner 0.078 µg/mL	0.0327	0.0457	0.0438	–	–	–	–	–	–
B. subtilis 168 [1], partner 0.156 µg/mL	0.0426	0.0476	0.0441	–	–	–	–	–	–
S. pneumoniae D39V [2], partner 0.65 µg/mL	–	–	–	0.96	0.853	0.88	0.712	0.456	0.301
S. pneumoniae D39V [2], partner 1.3 µg/mL	–	–	–	0.949	0.842	0.85	0.713	0.537	0.35
S. pneumoniae D39V [2], partner 2.6 µg/mL	–	–	–	0.926	0.81	0.835	0.705	0.544	0.321

Conditions	Bliss interaction score
B. subtilis 168 [3]	-0.0381
S. aureus DSM 20231	-0.101
S. aureus Newman	-0.045
S. pneumoniae D39V [4]	-0.132
